The values below are quoted from earlier work in patent EP3958980B1, “TARGETED NOVEL TRIAZOLOTHIADIAZINE DERIVATIVES FOR THE TREATMENT OF LUNG CANCER” (Anadolu Universitesi, priority 2020, dated 2021).

By GI50 is commonly meant the concentration at which growth is held to half of that of the control. By IC50 is commonly meant the concentration that inhibits the measured activity by half. Broadly, the inhibition is the change of the read-out against control, counted positive when it falls.

Data set [1] relates to leukemia (MOLT-4) cell line. Conditions: cited from earlier work.
The test system of data set [2] is kidney cancer (OU-31) cell line. Set-up: concentration or dose not given beside the values. The note with it: cited from earlier work.
In data set [3] the test system is 60 cell lines formed of leukemia, NSCLC, melanoma, prostate, ovarian and breast cancers. Conditions: against all cancer cells; cited from earlier work.
Data set [4] deals with kidney fibroblast (BHK-21) and lung carcinoma (H-157) cell lines. The note with it: highest cytotoxic activity; cell line not stated; cited from earlier work.
Another data set deals with lung cancer (H157) cells. The note with it: cited from earlier work.
For data set [5], the system named is human colon epithelial (HT-29) cells. Conditions: cited from earlier work.
The test system of data set [6] is kidney fibroblast (BHK-21) cells. The note with it: cited from earlier work.

`O=C(CSc1nnc2n1N=C(c1ccc(Cl)cc1)CS2)c1ccc(F)cc1` [2-((6-(4-Chlorophenyl)-7H-[1,2,4]triazolo[3,4-b][1,3,4]thiadiazine-3-yl)thio-1-(4-fluorophenyl)ethanone]: the growth in data set [1] is given as 49.82%; in data set [2], 48.14%.

As for `Fc1cc(-c2nnc3n2N=C(c2ccc(Cl)cc2)CS3)c(Cl)cc1Cl` [3-(2,4-Dichloro-5-fluorophenyl)-6-(4-chlorophenyl)-1,2,4-triazolo[3,4-b]-1,3,4-thiadiazine], in data set [3], the GI50 was 1060 to 25400 nM.

Take `O=c1oc2ccccc2cc1-c1nnc2n1N=C(c1ccc(-c3ccccc3)cc1)CS2` [3-(6-(Biphenyl-4-yl)-7H-[1,2,4]triazolo[3,4-b][1,3,4]-thiadiazine-3-yl)-2H-chromene-2-one]: the IC50 in data set [4] was 1010 ± 120 nM.

On to `Clc1ccc(C2=Nn3c(nnc3-c3cccnc3)SC2)cc1Cl` [6-(3,4-Dichlorophenyl)-3-(pyridine-3-yl)-7H-[1,2,4]triazolo[3,4-b][1,3,4]thiadiazine], for which the IC50 with lung cancer (H157) cells is 960 ± 430 nM.

Consider `CS(=O)(=O)c1ccc(Cc2nnc3n2N=C(c2ccc(-c4ccccc4)cc2)CS3)cc1` [6-(biphenyl-4-yl)-3-(4-(methylsulfonyl)benzyl)-7H-[1,2,4]triazolo[3,4-b][1,3,4]thiadiazine], for which, in data set [5], the IC50 was 12500 nM.

Consider `CC[C@]1(O)C[C@H]2CN(CCc3c([nH]c4ccccc34)[C@@](C(=O)OC)(c3cc4c(cc3OC)N(C=O)[C@H]3[C@@](O)(C(=O)OC)[C@H](OC(C)=O)[C@]5(CC)C=CCN6CC[C@]43[C@@H]65)C2)C1` [vincristine], for which, in the data set on lung cancer (H157) cells, the IC50 is 1030 ± 40 nM. In addition, in data set [6], the inhibition is listed as 74.5%.
